Laboratory results from PMC2994747, “Molecular Characterization of c-Abl/c-Src Kinase Inhibitors Targeted against Murine Tumour Progenitor Cells that Express Stem Cell Markers” (PLoS ONE, 2010).
Like-named read-outs stand apart in the source and are kept apart here. One block for each compound: values may come before it.

What was measured:
A549 = test: MTS cell viability assay; type: cell-based, human
Outline: (§1)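 Viability was measured as MTS absorbance at 490 nm following 1 h with the tetrazolium reagent. Treatment with the dual kinase inhibitors, or 0.2% DMSO as vehicle, lasted 24 h or 96 h in monolayer cultures kept in DMEM plus 10% foetal calf serum.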

HepG2 = test: MTS cell viability assay; type: cell-based, human
Outline: as §1

CaCo2 = test: MTS cell viability assay; type: cell-based, human
Outline: as §1

BetaD5 [1] = test: Cell cycle analysis by flow cytometry; type: cell-based, mouse; conditions: IC50 concentration, 96 h
Outline: (§2)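 Step one: detach cells with trypsin and rinse with PBS. Step two: pellet, then treat with solution A for 10 min at room temperature. Step three: add solutions B and C, with the final incubation cold (4°C) and dark, before cytometric acquisition.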

GammaA3 [2] = test: Cell cycle analysis by flow cytometry; type: cell-based, mouse; conditions: IC50 concentration, 96 h
Outline: as §2

GammaD12 [3] = test: Cell cycle analysis by flow cytometry; type: cell-based, mouse; conditions: IC50 concentration, 96 h
Outline: as §2

BetaD5 [4] = test: MTS cell viability assay; type: cell-based, mouse
Outline: as §1

GammaA3 [5] = test: MTS cell viability assay; type: cell-based, mouse
Outline: as §1

GammaD12 [6] = test: MTS cell viability assay; type: cell-based, mouse; conditions: MTS
Outline: as §1

A2C12 = test: MTS cell viability assay; type: cell-based, mouse
Outline: as §1

BetaD5 [7] = test: Western blot, semi-quantitative protein expression; type: cell-based, mouse
Experimental: (§3) For the Western Blot analysis, cells were rinsed and lysed as previously described. An amount of 25 µg protein was used for SDS-PAGE. Antibodies for c-Abl (sc-131), Actin (sc-1616), Cdc2-p34 (sc-8395), EPS15 (sc-1840), FAK (sc-558), c-Fos (sc-52), p38 (sc-7972), p53 (sc-6243) and STAT5 (sc-835x) were obtained from Santa Cruz (Santa Cruz Biotechnology, Heidelberg, Germany), while c-Src (2109) and phospho-Src Y416 (2101) were purchased from Cell Signaling (Cell Signaling Technology, Frankfurt a. M., Germany). The EGFR (06-847), phospho-EGFR Y992 (07-821) and phospho-EGFR Y1045 (04-284) stem from Upstate (Upstate, Schwalbach, Germany) and the hnRNP-K (A300-676A) from Bethyl Labs (Bethyl Laboratories, Montgomery, Texas, USA). Finally p73 (IMG-246) was supplied by Imgenex (Imgenex, Hamburg, Germany). Depending on the primary antibody the secondary antibodies were either horseradish peroxidase-conjugated anti-mouse (AP 160P), anti-rabbit (AP 132P) or anti-sheep (AP 147P) (Chemicon, Schwalbach, Germany).
(§4) Semi-quantitative analysis were carried out with Kodak 1D Image Analysis Software in reference to the vehicle treated control cells (see supplementary table S7).

GammaA3 [8] = test: Western blot, semi-quantitative protein expression; type: cell-based, mouse
Experimental: as §3, §4

GammaD12 [9] = test: Western blot, semi-quantitative protein expression; type: cell-based, mouse
Experimental: as §3, §4

[10] = 24 h, read-out: Calculated IC50 after single treatment for 24 h
[11] = 96 h, read-out: Calculated IC50 after daily treatment for 96 h
[12] = Mus musculus, 24 h, read-out: Calculated IC50 after single treatment for 24 h
[13] = Mus musculus, 96 h, read-out: Calculated IC50 after daily treatment for 96 h

- IC50 (A549; [10]): 43.4 ± 8 µM
- IC50 (A549; [11]): 8.3 ± 0.4 µM
- IC50 (HepG2; [10]): 77.2 ± 7.5 µM
- IC50 (HepG2; [11]): 25.5 ± 4.8 µM
- IC50 (CaCo2; [10]): 77.1 ± 7.5 µM
- IC50 (CaCo2; [11]): 6.8 ± 1.5 µM
Structure (SMILES): CSc1nc(NCCc2ccc(Cl)cc2)c2cnn(CC(Cl)c3ccccc3)c2n1 (centres unmarked) [Si57]
- Cells in G1 phase (BetaD5 [1]): 52.5%
- Cells in G2 phase (BetaD5 [1]): 32.3%
- Cells in S phase (BetaD5 [1]): 15.4%
- Cells in G1 phase (GammaA3 [2]): 59.6%
- Cells in G2 phase (GammaA3 [2]): 18%
- Cells in S phase (GammaA3 [2]): 22.4%
- Cells in G1 phase (GammaD12 [3]): 33%
- Cells in G2 phase (GammaD12 [3]): 6%
- Cells in S phase (GammaD12 [3]): 61.1%
- IC50 (BetaD5 [4]; [10]): 19.6 ± 1.5 µM
- IC50 (BetaD5 [4]; [11]): 9.1 µM
- IC50 (GammaA3 [5]; [10]): 26.6 ± 4.2 µM
- IC50 (GammaA3 [5]; [11]): 5.8 ± 0.4 µM
- IC50 (GammaD12 [6]; [10]): 14.6 ± 0.7 µM
- IC50 (GammaD12 [6]; [11]): 4.8 ± 0.6 µM
- IC50 (A2C12; [10]): 24.8 ± 0.2 µM
- IC50 (A2C12; [11]): 5.4 ± 0.3 µM
- Actin protein expression (BetaD5 [7]): 98
- EGFR Y992-p protein expression (BetaD5 [7]): 116
- EGFR Y1045-p protein expression (BetaD5 [7]): 65
- EGFR protein expression (BetaD5 [7]): 61
- EPS15 protein expression (BetaD5 [7]): 781
- FAK protein expression (BetaD5 [7]): 98
- STAT5 protein expression (BetaD5 [7]): 192
- c-Abl protein expression (BetaD5 [7]): 89
- c-Fos protein expression (BetaD5 [7]): 58
- c-Src Y416-p protein expression (BetaD5 [7]): 19
- c-Src protein expression (BetaD5 [7]): 153
- hnRNP-K protein expression (BetaD5 [7]): 126
- p38 protein expression (BetaD5 [7]): 76
- p53 protein expression (BetaD5 [7]): 248
- Actin protein expression (GammaA3 [8]): 105
- EGFR Y992-p protein expression (GammaA3 [8]): 90
- EGFR Y1045-p protein expression (GammaA3 [8]): 15
- EGFR protein expression (GammaA3 [8]): 39
- EPS15 protein expression (GammaA3 [8]): 102
- FAK protein expression (GammaA3 [8]): 101
- STAT5 protein expression (GammaA3 [8]): 93
- c-Abl protein expression (GammaA3 [8]): 62
- c-Fos protein expression (GammaA3 [8]): 79
- c-Src Y416-p protein expression (GammaA3 [8]): 256
- c-Src protein expression (GammaA3 [8]): 104
- hnRNP-K protein expression (GammaA3 [8]): 93
- p38 protein expression (GammaA3 [8]): 38
- p53 protein expression (GammaA3 [8]): 54
- Actin protein expression (GammaD12 [9]): 106
- EGFR Y992-p protein expression (GammaD12 [9]): 62
- EGFR Y1045-p protein expression (GammaD12 [9]): 96
- EGFR protein expression (GammaD12 [9]): 89
- EPS15 protein expression (GammaD12 [9]): 135
- FAK protein expression (GammaD12 [9]): 106
- STAT5 protein expression (GammaD12 [9]): 110
- c-Abl protein expression (GammaD12 [9]): 212
- c-Fos protein expression (GammaD12 [9]): 70
- c-Src Y416-p protein expression (GammaD12 [9]): 90
- c-Src protein expression (GammaD12 [9]): 103
- hnRNP-K protein expression (GammaD12 [9]): 100
- p38 protein expression (GammaD12 [9]): 29
- p53 protein expression (GammaD12 [9]): 58

- IC50 (A549; Homo sapiens, A549, 24 h, 24 h, read-out: Calculated IC50 after single treatment for 24 h): 26.1 ± 2.6 µM
- IC50 (A549; Homo sapiens, A549, 96 h, 96 h, read-out: Calculated IC50 after daily treatment for 96 h): 2.7 µM
- IC50 (HepG2; Homo sapiens, 24 h, read-out: Calculated IC50 after single treatment for 24 h): 64.6 ± 10.3 µM
- IC50 (HepG2; Homo sapiens, 96 h, read-out: Calculated IC50 after daily treatment for 96 h): 20.9 ± 1.8 µM
- IC50 (CaCo2; Homo sapiens, Caco-2, 24 h, read-out: Calculated IC50 after single treatment for 24 h): 64.6 ± 10.3 µM
- IC50 (CaCo2; Homo sapiens, Caco-2, 96 h, read-out: Calculated IC50 after daily treatment for 96 h): 2.1 ± 0.2 µM
Structure (SMILES): Clc1cccc(Nc2nc(SC3CCCC3)nc3c2cnn3CC(Cl)c2ccccc2)c1 (centres unmarked) [Si135]
- Cells in G1 phase (BetaD5 [1]): 73%
- Cells in G2 phase (BetaD5 [1]): 22.3%
- Cells in S phase (BetaD5 [1]): 4.7%
- Cells in G1 phase (GammaA3 [2]): up to 75%
- Cells in G2 phase (GammaA3 [2]): 14.9%
- Cells in S phase (GammaA3 [2]): 10%
- Cells in G1 phase (GammaA3 [2]; listed as Si 135): 75.1%
- Cells in G1 phase (GammaD12 [3]): 35.5%
- Cells in G2 phase (GammaD12 [3]): 12.5%
- Cells in S phase (GammaD12 [3]): 51.9%
- IC50 (BetaD5 [4]; [12]): 13 ± 2.2 µM
- IC50 (BetaD5 [4]; [13]): 3.6 ± 0.2 µM
- IC50 (GammaA3 [5]; [12]): 10 ± 2.2 µM
- IC50 (GammaA3 [5]; [13]): 3.8 ± 0.2 µM
- IC50 (GammaD12 [6]; [12]): 14.7 ± 0.6 µM
- IC50 (GammaD12 [6]; [13]): 3.5 ± 0.2 µM
- IC50 (A2C12; [12]): 25.5 ± 3.8 µM
- IC50 (A2C12; [13]): 4.1 ± 0.4 µM
- Actin protein expression (BetaD5 [7]): 92
- EGFR Y992-p protein expression (BetaD5 [7]): 68
- EGFR Y1045-p protein expression (BetaD5 [7]): 148
- EGFR protein expression (BetaD5 [7]): 116
- EPS15 protein expression (BetaD5 [7]): 759
- FAK protein expression (BetaD5 [7]): 114
- STAT5 protein expression (BetaD5 [7]): 163
- c-Abl protein expression (BetaD5 [7]): 101
- c-Fos protein expression (BetaD5 [7]): 98
- c-Src Y416-p protein expression (BetaD5 [7]): 20
- c-Src protein expression (BetaD5 [7]): 135
- hnRNP-K protein expression (BetaD5 [7]): 115
- p38 protein expression (BetaD5 [7]): 56
- p53 protein expression (BetaD5 [7]): 119
- Actin protein expression (GammaA3 [8]): 101
- EGFR Y992-p protein expression (GammaA3 [8]): 70
- EGFR Y1045-p protein expression (GammaA3 [8]): 31
- EGFR protein expression (GammaA3 [8]): 25
- EPS15 protein expression (GammaA3 [8]): 102
- FAK protein expression (GammaA3 [8]): 104
- STAT5 protein expression (GammaA3 [8]): 80
- c-Abl protein expression (GammaA3 [8]): 65
- c-Fos protein expression (GammaA3 [8]): 112
- c-Src Y416-p protein expression (GammaA3 [8]): 216
- c-Src protein expression (GammaA3 [8]): 107
- hnRNP-K protein expression (GammaA3 [8]): 90
- p38 protein expression (GammaA3 [8]): 48
- p53 protein expression (GammaA3 [8]): 78
- Actin protein expression (GammaD12 [9]): 110
- EGFR Y992-p protein expression (GammaD12 [9]): 181
- EGFR Y1045-p protein expression (GammaD12 [9]): 132
- EGFR protein expression (GammaD12 [9]): 95
- EPS15 protein expression (GammaD12 [9]): 149
- FAK protein expression (GammaD12 [9]): 117
- STAT5 protein expression (GammaD12 [9]): 118
- c-Abl protein expression (GammaD12 [9]): 152
- c-Fos protein expression (GammaD12 [9]): 103
- c-Src Y416-p protein expression (GammaD12 [9]): 140
- c-Src protein expression (GammaD12 [9]): 89
- hnRNP-K protein expression (GammaD12 [9]): 75
- p38 protein expression (GammaD12 [9]): 18
- p53 protein expression (GammaD12 [9]): 108
